Experimental findings from patent publication US20190083521A1, “COMBINATION THERAPY FOR TREATING CANCER” (Epizyme, Inc., priority 2014, published 2019) are described below.

In test [1] the test system is MOLM-13 (MLL-AF9) cells. Nature of the test: Combination proliferation assay with Compound A2 (CellTiter-Glo, Chou-Talalay CI). The class given is cell-based, human. As to conditions: for Combination effect, reverse order of addition with Ara-C washout: washed out, then Compound A2 7 days; for Combination effect with Compound A2 (Table 2): MOLM-13 MLL-AF9. An outline of the steps: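 Viability by CellTiter-Glo ATP luminescence; fraction affected versus DMSO controls, combination index by Chou-Talalay (CI <1 synergy, >1 antagonism).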
Background: ATP-based viability assays read luminescence as a measure of living cells.

The subject of another test is MV4-11 (MLL-AF4) cells. The test is described as above. The class given is cell-based, human. An outline of the steps: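 Viability by CellTiter-Glo ATP luminescence; fraction affected versus DMSO controls; combination index by Chou-Talalay method (CI <1 synergy, >1 antagonism).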
For test [2], the system named is SKM-1 (non-MLL-rearranged AML) cells. The description is as above. The class given is cell-based, human. The method, then: (§1) Graphs representing values of combination index (CI) versus Fractional effect (Fa) known as Fa-CI plots were generated and synergy was evaluated.
(§2) Viability was determined using CellTiter-Glo® (Promega).
MV4-11 cells were maintained in IMDM supplemented with 10% fetal bovine serum. MOLM-13 and SKM-1 cells were maintained in Roswell Park Memorial Institute medium (RPMI) supplemented with 10% fetal bovine serum. They were cultured in flasks or plates in a humidified 5% CO2 atmosphere.
Proliferation studies were performed using MOLM-13, MV4-11 and SKM-1 cell lines in vitro to evaluate the cancer cell killing effect of a combination of two agents together on cell growth. Initial proliferation studies were performed to determine the IC50 values of a given compound in each cell line. The cell counts were measured by ATP quantitation using the Promega Cell Titer Glo kit and luminescence values correspond to the amount of ATP in a given well.
Compounds evaluated for synergy in the co-treatment phase were tested in a range which was bracketed around the IC50's. The compounds were plated to a 96 well plate in a matrix format which includes increasing concentrations of each drug in the combination in a constant ratio, in addition to the effect of each compound alone in the study. Cells were seeded and grown in the log-linear phase for 3 or 7 days in the cotreatment phase. Maximum and minimum inhibition (DMSO alone) controls were used in each plate to calculate fraction affected (Fa) of a test well. DMSO concentration was kept at 0.1% v/v. The drug combination analysis was performed utilizing the Chou-Talalay method. Synergy was determined using the software package Calcusyn by Biosoft. The combination index (CI) is the term used to describe the level of synergy or antagonism in a given test system. A combination index less than one indicates synergy, and a CI greater than one indicates antagonism.
The drug combination analysis was performed using the Chou-Talalay method. Graphs representing values of combination index (CI) versus Fractional effect (Fa) known as Fa-CI plots were generated and synergy was evaluated.

In a further test the test system is EOL-1 (MLL-PTD) cells. Nature of the test: Combination proliferation assay with Compound A2 (Chou-Talalay CI). The class given is cell-based, human. The note with it: EOL-1 (MLL-PTD). The method, then: as §1, §2
Another test concerns KOPM-88 (MLL-PTD) cells. The description is as above. In kind it is cell-based, human. The note with it: KOPM-88 (MLL-PTD). The method, then:
as §1, §2

For test [3], the system named is MOLM-13 cells. Nature of the test: Flow cytometric analysis of cell cycle and Annexin V (apoptosis). In kind it is cell-based, human. How it is done: (§3) A Guava EasyCyte HT™ flow cytometer was used to measure DNA content, Annexin V staining and cell surface expression of CD14 and CD11b markers on Days 10 and 14.
(§4) On Day 0 MOLM-13 cells are seeded at 3,000 cells/mL. On Day 7 and Day 10 MOLM-13 cells are counted and reseeded at 50,000 cells/mL. […] On Day 10 They were redosed again. On Day 14 the experiment was terminated. Cells were sampled for CD14 and CD11b analysis on Days 7, 10 and 14.
To evaluate the fraction of cells in each cell cycle, flow cytometric analysis was performed. FACS analysis for detection of cell death by apoptosis, and cell cycle was performed.
Cells were harvested on days 7, 10 and 14 and split to allow simultaneous analysis of cell cycle and Annexin V staining. Apoptosis was determined using the Guava Nexin Assay (Millipore 4500-0450) and cells were prepared according to the manufacturer's recommendations. Samples were analyzed using the Guava EasyCyte Plus System (Millipore). Cells for cell cycle analysis were pelleted by centrifugation at 200×g for 5 minutes at 4° C., washed twice with ice cold PBS then fixed with 70% ice cold ethanol. All samples were analyzed together at end of experiment. Following fixation cells were washed with PBS and stained with the Guava cell cycle reagent (Millipore 4500-0220) for 30 minutes. Samples were analyzed using the Guava EasyCyte Plus System (Millipore).
On the technique in general: In flow cytometry, cells or beads pass a laser one at a time.

Test [4] concerns MOLM-13 cells. Nature of the test: CD11b and CD14 differentiation marker expression by flow cytometry. The class given is cell-based, human. The note with it: single agents. How it is done:
as §3, §4
On day 7, 10, and 14, cells were collected for analysis. The cells were prepared by washing twice in PBS, followed by fixation in 4% formaldehyde for ten minutes at 37° C. After fixation cells were washed and blocked with blocking buffer for 10 minutes at room temperature. Cells were then incubated in presence of anti-CD14, anti-CD11b or anti-IgG antibody for 1 hour at room temperature while rotating. Cells were washed, re-suspended in PBS and 5,000 events were analyzed using ExpressPro software on the GuavaCyte Plus System.

The test system of test [5] is MOLM-13 (MLL-AF9) cells. Briefly: Example 7 primary screen: 300 nM EPZ-5676 pre-treatment, second compound 72 h, ATPLite, GI100 shift. The class given is cell-based, human. The note with it: Homo sapiens, 264 h; MOLM-13; single agent; read-out: EPZ-5676 11-day (Primary screen) IC50.
Test [6] relates to SKM-1 (non-MLLr) cells. The test is described as above. The note with it: Homo sapiens, 264 h; SKM-1; single agent; read-out: EPZ-5676 11-day (Primary screen) IC50. The class given is cell-based, human.
Test [7] has as its system OCI-AML-4 (MLL-ENL) cells. The description is as above. The class given is cell-based. As to conditions: 264 h; OCI-AML-4; single agent; read-out: EPZ-5676 11-day (Primary screen) IC50. The method, then:
Cells were split using EPZ-5676 or DMSO containing growth media and further incubated for an additional 3-day pre-treatment time. Cells were finally seeded in growth media containing EPZ-5676 or DMSO in 384-well plates at 500 cell/well density. Cells were then equilibrated in incubators for 24 hours before treatment with a second compound. Treated assay plates were incubated with a second compound for 72 hours. After this time, plates were developed for endpoint analysis using ATPLite to measure ATP content, which is used as an indicator of cell viability.
“N/D” means the GI100 of the second compound could not be determined for both conditions and “-” means not tested.
Growth Inhibition (GI) as a measure of cell viability: The cell viability of vehicle was measured at the time of dosing the second agent (T0) and after seventy-two hours (T72). A GI reading of 0% represents no growth inhibition—cells treated with test compound as compared to T72 vehicle signals were measured. […] A GI 200% represents complete death of all cells in the culture well. Compounds reaching an activity plateau of GI 200% are considered cytotoxic. GI is calculated by applying the following test and equation: […]

For test [8], the system named is MOLM-13 (MLL-AF9) cells. Briefly: Example 7 retest: EPZ-5676 pre-treatment, second compound 72 h, Cell Titer Glo, growth inhibition. As to conditions: Homo sapiens, 240 h, single agent. The class given is cell-based.
Test [9] deals with OCI-AML-4 (MLL-ENL) cells. Described as above. The class given is cell-based. The note with it: 240 h, single agent.
In another test the test system is THP-1 (MLL-AF9) cells. The description is as above. The class given is cell-based. As to conditions: 240 h, single agent, read-out: EPZ-5676 10-day IC50.
A further test relates to ML-2 (MLL-AF6) cells. Described as above. The note with it: 240 h, single agent, read-out: EPZ-5676 10-day IC50. In kind it is cell-based.
For a further test, the system named is RS4-11 (MLL-AF4) cells. The test is described as above. The class given is cell-based. The note with it: Homo sapiens, 240 h, single agent, read-out: EPZ-5676 10-day IC50.
For test [10], the system named is SKM-1 (non-MLLr) cells. The test is described as above. In kind it is cell-based. The note with it: Homo sapiens, 240 h, single agent.
[11] abbreviates: 14 day treatment, 156 nM Compound A2 or 63 nM Ara-C.

For orientation: IC50 means the concentration that inhibits the measured activity by half.

The structures appear in SMILES notation. “Also recorded” adds a separate entry of the source.

Take `Nc1ccn([C@@H]2O[C@H](CO)[C@@H](O)[C@@H]2O)c(=O)n1` [Ara-C, cytarabine]: the “Combination effect with Compound A2 (Table 4)” value with MOLM-13 (MLL-AF9) cells [1] (MOLM-13 (MLL-AF9), 7 Day Cotreatment Model) is recorded as “Strong Synergy”. Besides, the “Combination effect with Compound A2” value was “Synergy (A combination index less than one indicates synergy)” with MOLM-13 (MLL-AF9) cells [1] (MOLM-13, 4 + 3 Model (4 days Compound A2 pretreatment, then 3 days co-treatment)); “Synergy (A combination index less than one indicates synergy)” with MOLM-13 (MLL-AF9) cells [1] (MOLM-13, 7 Day Cotreatment (Example 1)); “Synergy (A combination index less than one indicates synergy)” with MV4-11 (MLL-AF4) cells (MV4-11, 7 Day Cotreatment (Example 1)). The “Combination effect, reverse order of addition” value in the test with MOLM-13 (MLL-AF9) cells [1] (MOLM-13, Ara-C 3 days, then Compound A2 and Ara-C co-treatment 7 days) is given as “Synergy (Drug synergy was statistically defined by CI values less than 1)”. For the same molecule, the “Combination effect, reverse order of addition with Ara-C washout” value in the test on MOLM-13 (MLL-AF9) cells [1] (MOLM-13, Ara-C 3 days) is recorded as “Combination benefit is maintained”; with MOLM-13 (MLL-AF9) cells [1] (MOLM-13, Ara-C 3 days, listed as cytarabine), “essentially the same level of synergistic cell killing”. For the same molecule, the “Antiproliferative combination effect after Compound A2 washout” value in the test on MOLM-13 (MLL-AF9) cells [1] (MOLM-13, Compound A2 washed out prior to addition of the SOC agent) is listed as “durable combination benefit; also recorded: maintained”; with MV4-11 (MLL-AF4) cells (MV4-11, Compound A2 washed out prior to addition of the SOC agent), “maintained”. Moreover, the “Antiproliferative combination effect with Compound A2” value in the test with MOLM-13 (MLL-AF9) cells [1] (MOLM-13, pre-treatment model, no Compound A2 washout) was “synergistic”; in the test on MV4-11 (MLL-AF4) cells (MV4-11, pre-treatment model, no Compound A2 washout) it was “synergistic”. Also, the “Combination effect with Compound A2 (Table 2)” value with MOLM-13 (MLL-AF9) cells [1] is recorded as “Synergy (Drug synergy was statistically defined by CI values less than 1)”; with MOLM-13 (MLL-AF9) cells [1] (listed as cytarabine), “synergistically”; in the test on MV4-11 (MLL-AF4) cells (MV4-11 MLL-AF4), “synergistically”; in test [2] (SKM-1 AML: Non-rearranged), “did not act synergistically”. Moreover, the “Effect of Compound A2 on antiproliferative activity of the second agent” value in [2] (SKM-1 non-MLL-rearranged (Example 5)) is recorded as “did not affect”. The “Combination effect with Compound A2 (Table 3)” value in the test with EOL-1 (MLL-PTD) cells and in the test with KOPM-88 (MLL-PTD) cells was “Synergy (Drug synergy was statistically defined by CI values less than 1)” each time. Moreover, the “Apoptosis in combination with Compound A2” value in the test on MOLM-13 cells [3] (156 nM Compound A2 + 63 nM Ara-C) was “enhance apoptosis”. In addition, in the test with MOLM-13 cells [3] (156 nM Compound A2 + 63 nM Ara-C, at 10 and 14 days), the “Sub-G1 cell population in combination with Compound A2” value is “significant increase”. In the test with MOLM-13 cells [3] (setting [11]), the “Apoptotic cell population, single agent” value is “modest increase”. Besides, the “Sub-G1 cell population, single agent” value with MOLM-13 cells [3] (setting [11]) is given as “minimal effect”. For the same molecule, the “Differentiation markers CD11b and CD14” value with MOLM-13 cells [4] was “time and concentration dependent up-regulation”.

Consider `CC(C)N(C[C@H]1O[C@@H](n2cnc3c(N)ncnc32)[C@H](O)[C@@H]1O)[C@H]1C[C@@H](CCc2nc3cc(C(C)(C)C)ccc3[nH]2)C1` [Compound A2, pinometostat], for which the “Combination effect with T0070907 (PPAR antagonist)” value in the test with MOLM-13 (MLL-AF9) cells [1] (MOLM-13, co-treatment model (Example 8)) is on record as “Synergy (Drug synergy was statistically defined by CI values less than 1)”. In addition, the IC50 with MOLM-13 (MLL-AF9) cells [5] was 150 nM; in the test with SKM-1 (non-MLLr) cells [6], above 3000 nM; in test [7] it was above 3000 nM; with MOLM-13 (MLL-AF9) cells [8] (MOLM-13 (MLL-AF9), read-out: EPZ-5676 10-day IC50), 75 nM; in the test on MOLM-13 (MLL-AF9) cells [8] (MOLM-13, read-out: EPZ-5676 10-day (Retest) IC50), 75 nM; in test [9] (OCI-AML-4 (MLL-ENL), read-out: EPZ-5676 10-day IC50) it was above 3000 nM. In addition, the half-maximal inhibitory concentration (IC50) was above 3000 nM in [9] (OCI-AML-4, read-out: EPZ-5676 10-day (Retest) IC50); above 3000 nM in the test with THP-1 (MLL-AF9) cells; above 3000 nM in the test with ML-2 (MLL-AF6) cells; above 3000 nM in the test on RS4-11 (MLL-AF4) cells; above 3000 nM in the test on SKM-1 (non-MLLr) cells [10] (SKM-1 (non-MLLr), read-out: EPZ-5676 10-day IC50); above 3000 nM in the test with SKM-1 (non-MLLr) cells [10] (SKM-1, read-out: EPZ-5676 10-day (Retest) IC50).
